A short description of data set [1]: in vitro. The note with it: human, Caco-2.
Data set [2] is described as follows: in vivo. The note with it: rat, iv, 10 umol/kg.
A short description of data set [3]: in vivo. To be noted: rat, po, 10 uM/kg.
Data set [4] is described as follows: in vivo. The note with it: rat, po, 10 umol/kg.
Data set [5] in a line: in vivo. The note with it: rat, plasma, iv, 10 umol/kg.
The nature of data set [6]: in vivo. The note with it: rat, po, 10 umol/kg. This is another data set of the same source.
A short description of data set [7]: in vivo. To be noted: rat.
The nature of data set [8]: in vivo. To be noted: rat, plasma, iv, 10 umol/kg. This is another data set of the same source.
Data set [9] can be described thus: in vivo. The note with it: rat, iv, 10 umol/kg. This is another data set of the same source.
A short description of data set [10]: Percent oral bioavailability at dose of 25 umol/kg in monkey. It counts as ADME, organism-based. To be noted: primates, in vivo.
Data set [11] in a line: Half life in monkey at intravenous dose of 25 umol/kg. The note with it: simiiformes, in vivo. It counts as ADME, organism-based.
The nature of data set [12]: Tested for plasma clearance at intravenous dose of 25 umol/kg in monkey. It counts as ADME, organism-based.
Data set [13] is described as follows: Area under curve at oral dose of 25 umol/kg in monkey. The note with it: simiiformes, in vivo. Type of data set: ADME.
Data set [14] in a line: T max value at oral dose of 25 umol/kg in monkey. Type of data set: ADME, organism-based. To be noted: simiiformes, in vivo.
Data set [15] is described as follows: Cmax value at oral dose of 25 umol/kg in monkey. Type of data set: ADME, organism-based. More on the design: dose 25 umol/kg, route oral. To be noted: simiiformes, in vivo.
Data set [16] can be described thus: Half life in monkey at oral dose of 25 umol/kg. Type of data set: ADME, organism-based. To be noted: simiiformes, in vivo.
Data set [17] in a line: Area under curve at intravenous dose of 25 umol/kg in monkey. It counts as ADME. To be noted: simiiformes, in vivo.
Data set [18] can be described thus: Tested for volume distribution at intravenous dose of 25 umol/kg in monkey. Type of data set: ADME, organism-based. To be noted: simiiformes, in vivo, read-out: Vss.

The record followed here is ChEMBL document CHEMBL1145011 (J Med Chem, 2003).

Where only a bound is given, the exact number is not on record here.

A word on the Papp: it is a coefficient for how fast a substance crosses the barrier. In the case of `Cc1noc(NS(=O)(=O)c2ccccc2-c2ccc(-c3ncco3)cc2/C=C\c2ccccc2)c1C`, the Papp in [1] was 8.9 ×10⁻⁶ cm/s.

By bioavailability is commonly meant dose-corrected exposure relative to a reference, in per cent. Broadly, the Tmax is the time at which the peak concentration occurs. The clearance is the volume of plasma or blood freed of the substance per unit of time. By Cmax is commonly meant the maximum level reached in the sampled fluid or tissue. One may read the half-life as the time in which the quantity being followed falls by half. Take `Cc1onc(NS(=O)(=O)c2ccccc2-c2ccc(-c3ncco3)cc2CN2CCC(C)(C)C2=O)c1C`: the Vd in data set [2] came out at 2.3 L/kg. In data set [3], this compound had a bioavailability of 78%. The Tmax in [4] stood at 0.6 h. The clearance in data set [5] was 9.3 mL/min/kg. This compound gave a Cmax in data set [6] of 7.7 µM. Further, the half-life in data set [7] is 4.7 h.

`Cc1noc(NS(=O)(=O)c2ccccc2-c2ccc(-c3ncco3)cc2COCC(C)C)c1C` yielded a Papp in data set [1] of under 3 ×10⁻⁶ cm/s.

Consider `Cc1noc(NS(=O)(=O)c2ccccc2-c2ccc(-c3ncco3)cc2Cc2ncco2)c1C`, for which the Papp in data set [1] worked out at 14.8 ×10⁻⁶ cm/s.

The term AUC denotes concentration integrated over time. Take `Cc1onc(NS(=O)(=O)c2ccccc2-c2ccc(-c3ncco3)cc2N(C)C(=O)CC(C)(C)C)c1C`: the clearance was found to be 5.4 mL/min/kg in data set [8] and 2.7 mL/min/kg in data set [12]. Also, the Vd was 1.1 L/kg in [9] and 0.25 L/kg in [18]. Further, the values for the bioavailability in data set [10] and in data set [3] were 26% and 100%, respectively. Moreover, the half-life in data set [11] was 14 h; in data set [16] it was 17 h; in [7] it was 3.4 h. Moreover, the AUC was found to be 41.5 µM·h in [13] and 161 µM·h in data set [17]. The Tmax in [14] worked out at 1.2 h; in data set [4], 0.4 h. Besides, the Cmax in [15] was 16.1 µM; in data set [6] it was 28 µM.
